Data taken from article PMC3995910, “Effect of Proline Analogues on Activity of Human Prolyl Hydroxylase and the Regulation of HIF Signal Transduction Pathway” (PLoS ONE, 2014).

Target: T1, Prolyl hydroxylase 3 (PHD3) (Homo sapiens, UniProt Q9H6Z9)
T1 construct: gene EGLN3; recombinant human PHD3 expressed in E. coli, ~45 kDa
Assay: fluorescence-based 2OG consumption assay (OPD derivatization), double-reciprocal kinetics
Assay type: biochemical

T1 sequence (Q9H6Z9 whole entry): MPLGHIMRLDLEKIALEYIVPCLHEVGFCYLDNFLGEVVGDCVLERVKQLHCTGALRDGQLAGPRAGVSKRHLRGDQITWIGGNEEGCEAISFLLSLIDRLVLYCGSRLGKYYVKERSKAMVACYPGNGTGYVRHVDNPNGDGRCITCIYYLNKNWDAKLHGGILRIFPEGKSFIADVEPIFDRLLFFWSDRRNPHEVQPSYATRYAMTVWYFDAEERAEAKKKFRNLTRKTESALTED

Row | Ki | Structure (SMILES)
1 | 1090 nM | O=C(Nc1ccccc1NC(=O)[C@H]1CCCN1)[C@H]1CCCN1 [PA1]
2 | 2380 nM | O=C(O)[C@H]1CCCN1C(=O)OCc1ccccc1 [PA2]
